{
  "source": "patent US20230181661A1",
  "about": "“MUSHROOM-CONTAINING CHINESE MEDICINE COMPOUND COMPOSITION FOR KELOID SCAR TISSUE AND APPLICATION THEREOF” (ASIA UNIVERSITY, priority 2021, published 2023)",
  "tested_on": "KFS cells",
  "assay": "Cell metabolic activity assay (MTT assay)",
  "type": "cell-based",
  "conditions": "6.25 to 100 micromolar concentration",
  "procedure": "KFS cells were obtained from the Biosource Collection and Research Center (BCRC) of the Food Industry Research and Development Institute (Hsinchu, Taiwan). KFS cells were cultured in Dulbecco's modified eagle medium (DMEM) containing 10% FBS, 1.5 g/L sodium bicarbonate, 4 mM L-glutamine, 4.5 g/L glucose, 100 units/mL penicillin G, and 100 μg/mL streptomycin sulfate. All cells were incubated in a humidified environment with 5% CO2 and 37° C. The medium was refreshed every 2 days. KFS cells (2×10^4 cells/well) were seeded in 96-well plates overnight. KFS cells were exposed to different concentrations of a test drug in 100 μL of medium (for example, combination of 10 Chinese medicine ingredients). After 24 hours treatment, 10 μL of 5 mg/mL MTT (3-(4,5-dimethylthiazol-2-yl)-2,5-diphenyltetrazolium bromide) was added to each well. After incubation for 4 hours, cells were washed twice with 1×PBS. Next, 200 μL of dimethyl sulfoxide (DMSO) was added to each well. An absorbance value at 570 nm was determined for each well by using 650 nm as a reference wavelength. Compared with a control group (untreated with reagents), the absorbance may be correlated with the percentage of active cells. The cell metabolic activity rate is calculated as follows: Cell metabolic activity (%)=OD (treatment)/OD (control)×100%.",
  "data": [
    {"smiles": "COc1cc(/C=C/C(=O)CC(=O)/C=C/c2ccc(O)c(OC)c2)ccc1O", "note": "[Curcumin]", "values": [
      {"measurement": "growth of keloid fibroblasts", "result": "inhibit the growth"}
    ]},
    {"smiles": "Oc1ccc(C=Cc2cc(O)cc(O)c2)cc1", "note": "[Resveratrol]", "values": [
      {"measurement": "growth of keloid fibroblasts", "result": "inhibit the growth"}
    ]}
  ]
}
